Patent publication US6329349A, “Methods for reducing ischemic injury of the heart via the sequential administration of monophosphoryl lipid A and adenosine receptor agents” (priority 2000, dated 2001)
“Also recorded” adds a separate entry of the source. Like-named read-outs stand apart in the source and are kept apart here.

Key:
[1] = test system: Rat Brain A1 and A2 -Receptors; conditions: radioligand binding, Table I; cited from earlier work
[2] = test system: cultured chick ventricular myocytes; assay: Simulated ischemia (hypoxia and glucose deprivation) injury in cultured ventricular myocytes, percentage of cells killed; type: cell-based; conditions: for number of cells killed; agent present during prolonged ischemia after MLA pretreatment vs vehicle pretreatment: MLA 300 ng/ml for 4 h, 24 h prior, agent present during 90 min simulated ischemia; for percentage of myocytes killed; preconditioning effect of the agent after MLA pretreatment vs vehicle pretreatment: MLA (30 or 300 ng/ml) 24 h prior to 5 min exposure to the agent, 10 min agent-free, then 90 min simulated ischemia
Experimental: Ventricular cells were cultured from chick embryos 14 days in ovo (Spafas Inc., Storrs, Conn.) as previously described (16, 23). Cells were cultivated in a humidified 5% CO2 -95% air mixture at 37 C. […] The medium was changed to a HEPES-buffered medium containing (mM) 139 NaCl, 4.7 KCl, 0.5 MgCl2, 0.9 CaCl2, 5 HEPES (N-2-hydroxyethylpiperazine-N'-2-ethanesulfonic acid) and 2% fetal bovine serum, pH 7.4, 37 C. before exposing the myocytes to the various conditions at 37 C. Control myocytes were maintained in HEPES-buffered medium under room air. Hypoxia and glucose deprivation were used to induce and simulate ischemia in the cultured cells. Hypoxia was produced by placing the cells in a hypoxic incubator (NuAire) where O2 was replaced by N2 as previously described (16,23).
The extent of hypoxia-induced injury to the ventricular cell was quantitatively determined by the percentages of cells killed. To quantitate the % of cells killed, cells were exposed to a trypsin-EDTA Hanks' balanced salt solution for 10 minutes for detachment after the various treatment, followed by centrifugation (300×g for 10 minutes) and resuspension in culture media for counting in a hemocytometer. Only live cells sedimented and the cells counted represented those that survived (46). None of the sedimented cells subsequently counted included trypan blue. […] There was no protein in the culture media following a second 300×g centrifugation of resuspended cells previously treated with trypsin-EDTA.
The percentage of cells killed was calculated as the number of cells obtained from the control group (representing cells not subjected to any hypoxia or drug treatment) minus the number of cells from the treatment group divided by number of cells in control group multiplied by 100%. […]
In this experiment, myocytes were treated with either the vehicle (0.04% propylene glycol, 0.01% ethyl alcohol) or MLA 24 hours prior to a 5 minute exposure to 10 μM adenosine. Adenosine was removed by replacement of the culture medium with adenosine-free medium, and the cells were exposed to normal room air O2 for 10 minutes, followed by 90 minutes of simulated ischemia treatment.
The experimental protocol utilized in these studies entailed pretreatment of myocytes with MLA for a 4 hour period 24 hours prior to exposure of the cardiac myocytes to 90 minutes of simulated ischemia. During this 90 minute simulated ischemia period, several cardioprotective agents were administered individually to cells and their protective effects were assessed.
Additional experiments were performed to assess the differences in cardioprotection observed when MLA was administered as the second cardioprotective agent and an adenosine agonist, KATP channel opener or protein kinase C activator was administered as the first cardioprotective agent. The experiments were performed as follows: Cardiac myocytes were exposed to the first cardioprotective agent for 5 minutes and the agent was removed. Cells were then exposed to a period of simulated ischemia in the presence or absence of 300 ng/ml of MLA. The percentage of cells killed by simulated ischemia alone was 27±2% (n=9) in the absence of any treatment with any cardioprotective agent. When MLA was present during the simulated ischemia, the percentage of cells killed was reduced from 27±2% to 14±1.2%. When cells were exposed to 5 minutes of 10 μM pinacidil, a KATP channel opener followed by exposure to simulated ischemia (in the absence of MLA), the percentage of cells killed was 12.3±1. When the pinacidil-treated cells were exposed to simulated ischemia in the presence of MLA, the percentage of cells killed was reduced from 12.3±1% to 6.3±1.2% (n=3). When cells were exposed to 5 minutes of 1 μM PMA, a PKC activator, followed by exposure to simulated ischemia (in the absence of MLA), the percentage of cells killed was 14±1. […]

A2a adenosine receptor = conditions: Table II; cited from earlier work
A3 adenosine receptor = conditions: cited from earlier work
A1 adenosine receptor = conditions: Table II; cited from earlier work
A2 = conditions: table of Compound 8; cited from earlier work
[3] = 5 min exposure to first agent (10 μM pinacidil, 1 μM PMA or 10 μM adenosine), removed, then simulated ischemia in the absence of MLA
[4] = 5 min exposure to first agent (10 μM pinacidil, 1 μM PMA or 10 μM adenosine), removed, then simulated ischemia in the presence of 300 ng/ml MLA

## COc1cc(/C=C/c2nc3c(c(=O)n(C)c(=O)n3C)n2C)cc(OC)c1O [compound 35]
[1]
  A1 /A2 ratio: 19

## COc1cc(/C=C/c2nc3c([nH]2)c(=O)n(C)c(=O)n3C)cc(OC)c1 [33a]
[1]
  A1 /A2 ratio: 25

## Cn1c(=O)c2c(nc(/C=C/c3cccc(NC(=O)CCC(=O)O)c3)n2C)n(C)c1=O [compound 24]
[1]
  A1 /A2 ratio: 250

## COc1ccc(/C=C/c2nc3c(c(=O)n(C)c(=O)n3C)n2C)c(OC)c1OC [43b]
[1]
  A1 /A2 ratio: 34

## OC[C@H]1O[C@@H](n2cnc3c(NC4CCCC4)nc(Cl)nc32)[C@H](O)[C@@H]1O [CCPA, 2-chloro-N^6-cyclopentyl-adenosine]
[2]
  number of cells killed; agent present during prolonged ischemia after MLA pretreatment vs vehicle pretreatment: greater reduction in the number of cells killed
  percentage of myocytes killed; preconditioning effect of the agent after MLA pretreatment vs vehicle pretreatment: significantly reduced the percentage of myocytes killed; also recorded: enhanced by pretreatment of myocytes with MLA

## Cn1c(=O)c2c(nc(/C=C/c3cccc(C(F)(F)F)c3)n2C)n(C)c1=O [20b]
[1]
  A1 /A2 ratio: 25

## CCNC(=O)[C@H]1O[C@@H](n2cnc3c(NC(=O)Nc4ccccc4C(F)(F)F)ncnc32)[C@H](O)[C@@H]1O [Compound 4d, N^6-((2-trifluoromethyl)carbamoyl)adenosine-5'uronamide]
A2a adenosine receptor
  Ki: > 10000 nM
A3 adenosine receptor; Table II
  Ki: 54 nM
A1 adenosine receptor
  Ki: 384 nM

## CCNC(=O)[C@H]1O[C@@H](n2cnc3c(NC4CCCCC4)ncnc32)[C@H](O)[C@@H]1O [N^6 -cyclohexyl NECA, N6-cyclohexyl 5'-N-ethylcarboxamidoadenosine]
A2a adenosine receptor
  Ki: 170 nM
A3 adenosine receptor; Table II
  Ki: 16 nM
A1 adenosine receptor
  Ki: 0.43 nM

## Nc1ncnc2c1ncn2[C@@H]1O[C@H](CO)[C@@H](O)[C@H]1O [adenosine]
[2]; [3]
  percentage of cells killed: 12±1.4%
[2]; [4]
  percentage of cells killed: 7.4±1.2%
[2]
  percentage of myocytes killed; preconditioning effect of the agent after MLA pretreatment vs vehicle pretreatment: significantly decreased the percentage of myocytes killed

## CCCCCCCCCCCCCC(=O)O[C@@H]1[C@@H](C)[C@@]2(O)[C@@H](C=C(CO)C[C@]3(O)C(=O)C(C)=C[C@@H]23)[C@@H]2C(C)(C)[C@]12OC(C)=O [PMA, Phorbol 12-myristate 13-acetate]
[2]; [3]
  percentage of cells killed: 14±1%
[2]; [4]
  percentage of cells killed: 10.5±1%
[2]
  percentage of myocytes killed; preconditioning effect of the agent after MLA pretreatment vs vehicle pretreatment: enhanced by pretreatment with MLA

## CNC(=O)[C@H]1O[C@@H](n2cnc3c(NCc4cccc(I)c4)ncnc32)[C@H](O)[C@@H]1O [IB-MECA, N^6-(3-iodobenzyl)adenosine-5'-N-methyluronamide]
[2]
  number of cells killed; agent present during prolonged ischemia after MLA pretreatment vs vehicle pretreatment: synergistic cardioprotective effect
  percentage of myocytes killed; preconditioning effect of the agent after MLA pretreatment vs vehicle pretreatment: significantly reduced the percentage of myocytes killed; also recorded: enhanced by pretreatment of myocytes with MLA

## COc1ccc(/C=C/c2nc3c(c(=O)n(C)c(=O)n3C)n2C)cc1OC [32b]
[1]
  A1 /A2 ratio: 70

## COc1cc(/C=C/c2nc3c(c(=O)n(C)c(=O)n3C)n2C)cc(OC)c1OCCCCNC(=O)OC(C)(C)C [compound 39]
[1]
  A1 /A2 ratio: 42

## C=CCn1c(=O)c2c(nc(/C=C/c3cc(OC)c(OC)c(OC)c3)n2C)n(CC=C)c1=O [compound 46]
[1]
  A1 /A2 ratio: 13

## COc1cc(/C=C/c2nc3c(c(=O)n(C)c(=O)n3C)n2C)cc(OC)c1OC(C)=O [compound 36]
[1]
  A1 /A2 ratio: 93

## COc1cc(/C=C/c2nc3c(c(=O)n(C)c(=O)n3C)n2C)cc(OC)c1OC/C=C/CNC(C)=O [compound 41]
[1]
  A1 /A2 ratio: > 50

## COc1cc(/C=C/c2nc3c(c(=O)n(C)c(=O)n3C)n2C)cc(OC)c1OC [44b]
[1]
  A1 /A2 ratio: 70

## Cn1c(=O)c2c(nc(/C=C/c3cc(F)cc(F)c3)n2C)n(C)c1=O [34b]
[1]
  A1 /A2 ratio: 230

## Cn1c(=O)c2c(nc(/C=C/c3cccc([N+](=O)[O-])c3)n2C)n(C)c1=O [21b]
[1]
  A1 /A2 ratio: 11

## COc1cc(/C=C/c2nc3c(c(=O)n(C)c(=O)n3C)n2C)cc(OC)c1OCCCCN [compound 38]
[1]
  A1 /A2 ratio: 36

## COc1ccccc1/C=C/c1nc2c(c(=O)n(C)c(=O)n2C)n1C [17b]
[1]
  A1 /A2 ratio: 18

## CC(=O)Nc1cccc(/C=C/c2nc3c(c(=O)n(C)c(=O)n3C)n2C)c1 [compound 23]
[1]
  A1 /A2 ratio: 240

## Monophosphoryl lipid A [MLA]
[2]; 300 ng/ml MLA present during simulated ischemia, no first agent, untreated 27±2%
  percentage of cells killed: 14±1.2%
[2]; MLA 30 and 300 ng/ml for 4 h, 24 h prior to 90 min simulated ischemia, vs untreated, p<0.01
  percentage of cell death in response to prolonged ischemia: significantly lowered the percentage of cell death
[2]; MLA 4 h pretreatment, 24 h later 5 min preconditioning ischemia, 10 min recovery, 90 min simulated ischemia
  percentage of cells killed during prolonged ischemia after preconditioning ischemia: dose-dependent reduction in the percentage of cells killed

## CCCn1c(=O)c2c(nc(/C=C/c3cc(OC)cc(OC)c3)n2C)n(CCC)c1=O [53b]
[1]
  A1 /A2 ratio: 110

## CNC(=O)[C@H]1O[C@@H](n2cnc3c(NOc4ccccc4)ncnc32)[C@H](O)[C@@H]1O [Compound 11, 6-(O-Phenylhydroxylamino)purine-9-beta-ribofuranoside-5'-N-methyluronamide]
A2a adenosine receptor
  Ki: 66300 nM
A3 adenosine receptor; Table II
  Ki: 1340 nM
A1 adenosine receptor
  Ki: 2060 nM

## Cn1c(=O)c2c(nc(/C=C/c3cccc(NC(=O)OC(C)(C)C)c3)n2C)n(C)c1=O [compound 25]
[1]
  A1 /A2 ratio: 30

## CC(N/C(=N\C#N)Nc1ccncc1)C(C)(C)C (centres unmarked) [pinacidil]
[2]; [3]
  percentage of cells killed: 12.3±1%
[2]; [4]
  percentage of cells killed: 6.3±1.2%
[2]
  number of cells killed; agent present during prolonged ischemia after MLA pretreatment vs vehicle pretreatment: greater reduction in the number of cells killed
  percentage of myocytes killed; preconditioning effect of the agent after MLA pretreatment vs vehicle pretreatment: enhanced the preconditioning response mediated by pinacidil

## CCNC(=O)[C@H]1O[C@@H](n2cnc3c(NC(=O)Nc4cccc(I)c4)ncnc32)[C@H](O)[C@@H]1O [Compound 4q, N^6-((3-iodophenyl)carbamoyl)adenosine-5'uronamide]
A2a adenosine receptor
  Ki: 3940 nM
A3 adenosine receptor; Table II
  Ki: 30 nM

## Cn1c(=O)c2c(nc(/C=C/c3cccc(N)c3)n2C)n(C)c1=O [22b]
[1]
  A1 /A2 ratio: 30

## COc1ccc(/C=C/c2nc3c(c(=O)n(C)c(=O)n3C)n2C)cc1 [29b]
[1]
  A1 /A2 ratio: 44

## NCCNC(=O)Cc1ccc(NC(=O)Cc2ccc(Nc3ncnc4c3ncn4[C@@H]3O[C@H](CO)[C@@H](O)[C@H]3O)cc2)cc1 [Compound 8]
A3 adenosine receptor; table of Compound 8
  Ki: 4 nM
A2
  Ki: 210 nM

## COc1cc(/C=C/c2nc3c(c(=O)n(C)c(=O)n3C)n2C)cc(OC)c1OC/C=C/CN [compound 40]
[1]
  A1 /A2 ratio: 28

## Cn1c(=O)c2c(nc(/C=C/c3cccc(F)c3)n2C)n(C)c1=O [27b]
[1]
  A1 /A2 ratio: 190

## COc1cc(/C=C/c2nc3c(c(=O)n(C)c(=O)n3C)n2C)cc(OC)c1OC/C=C/CNC(=O)OC(C)(C)C [compound 42]
[1]
  A1 /A2 ratio: > 40

## COc1cc(/C=C/c2nc3c(c(=O)n(C)c(=O)n3C)n2C)cc(OC)c1 [33b]
[1]
  A1 /A2 ratio: > 200

## Cn1c(=O)c2c(nc(/C=C/c3cccc(N(C(=O)OC(C)(C)C)C(=O)OC(C)(C)C)c3)n2C)n(C)c1=O [compound 26]
[1]
  A1 /A2 ratio: 15

## COc1cccc(/C=C/c2nc3c(c(=O)n(C)c(=O)n3C)n2C)c1 [19b]
[1]
  A1 /A2 ratio: 64
